Test results reported in article PMC8147781, “Discovery of Pyrrolidine-2,3-diones as Novel Inhibitors of P. aeruginosa PBP3” (Antibiotics, 2021).
In brackets after ≈: the same amount, converted by molar mass. Where two headings read alike, the source gives them in different places.

Experiments:
[1] = tested on: S. aureus 133; experiment: MIC broth microdilution, S. aureus; assay type: cell-based
Experimental: (§1) MIC determination was performed via standard broth microdilution according to the Clinical & Laboratory Standards institute guidelines. Overnight colonies grown on BD-Columbia agar with 5% Sheep Blood (Becton Dickinson, Franklin Lakes, NJ, USA), were diluted in Mueller Hinton Broth 2 cation adjusted (MH+) medium (Thermo Fisher Scientific) to a concentration of 5 × 10^5 CFU/mL. Serial dilutions (1:2) of test compounds were incubated at 37 °C with 5 × 10^4 bacteria in a final volume of 100 μL. Sterile and growth controls in the presence of 1% DMSO and PMBN if the case, and the positive controls, aztreonam (AZT) and tigecycline (TIG) were included in the experiments (Table S4). The MICs were determined visually after 18 h at 37 °C and confirmed by the addition of 10% PrestoBlue (ThermoFisher Scientific) reagent according to the manufacture’s protocol. The fluorescence signal of PrestoBlue reagent was measured at Ex/Em: 550/595 nm after 30 min incubation at 37 °C using at a ClarioStar microplate reader (BMG Labtech). PrestoBlue reduction occurs in the presence of living cells and consequently turns red in colour and is highly fluorescent.

[2] = tested on: P. aeruginosa PAO1 (wild-type strain); experiment: MIC broth microdilution, P. aeruginosa PAO1; assay type: cell-based, Pseudomonas aeruginosa; conditions: for MIC: Pseudomonas aeruginosa, PAO1, PMBN 0 µg/mL (absence of PMBN); for MIC (µM) against P. aeruginosa PAO1: wild-type strain, with 4 µg/mL PMBN
Source text: (§2) The results presented above implied that seven pyrrolidine-2,3-dione derivatives inhibited the activity of ^PaPBP3 in vitro. Consequently, we were very interested in investigating the potential of these compounds to affect the growth of P. aeruginosa. Two P. aeruginosa bacterial strains (the wild-type PAO1 and the isogenic ΔmexB ΔmexX ΔmexCD-oprJ efflux pump mutant) were used to determine the MIC and the potential role of the main P. aeruginosa efflux systems in compound uptake. To increase the antibacterial sensitivity of the tested P. aeruginosa isolates to the potential inhibitors, we performed MIC experiments in the presence and absence of a sub-MIC concentration (4 µg/mL) of the outer membrane permeabilising polymyxin B nonapeptide (PMBN). […] Thus, we concluded that the physicochemical properties of the pyrrolidine-2,3-dione compounds were perhaps not yet favourable enough to cross the P. aeruginosa cell envelope without a permeabiliser because of their high hydrophobicity.
(§3) The wild-type P.aeruginosa PAO1 and the isogenic P. aeruginosa K2896 ΔmexBΔmexXYΔmexCD-oprJ isolates were used to determine the MIC in the presence and absence of PMBN [48].
as §1

[3] = tested on: P. aeruginosa K2896 ΔmexBΔmexXYΔmexCD-oprJ; experiment: MIC broth microdilution, P. aeruginosa K2896 efflux mutant; assay type: cell-based, Pseudomonas aeruginosa; conditions: for MIC: Pseudomonas aeruginosa, read-out: MIC (µM) P. aeruginosa K2896; for MIC (µM) against P. aeruginosa K28926: ΔmexB, ΔmexX, ΔmexCD-oprJ, with 4 µg/mL PMBN
Source text: as §2, §3, §1

[4] = tested on: B. subtilis 168; experiment: MIC broth microdilution, B. subtilis; assay type: cell-based
Experimental: as §1

[5] = tested on: A. baumannii ATCC15308; experiment: MIC broth microdilution, A. baumannii; assay type: cell-based; conditions: for MIC: Acinetobacter baumannii, control compounds
Experimental: as §1

[6] = tested on: K. pneumoniae clinical isolate; experiment: MIC broth microdilution, K. pneumoniae; assay type: cell-based
Experimental: as §1

[7] = tested on: E. coli Neumann; experiment: MIC broth microdilution, E. coli; assay type: cell-based; conditions: Escherichia coli
Experimental: as §1

[8] = tested on: S. pneumoniae; experiment: MIC broth microdilution, S. pneumoniae; assay type: cell-based; conditions: Streptococcus pneumoniae, read-out: MIC (µM) S. pneumoniae
Experimental: as §1

[9] = biological target: T1, PBP3 of P. aeruginosa (PaPBP3) (Pseudomonas aeruginosa, UniProt G3XD46); experiment: S2dfluo fluorescence transpeptidase assay; assay type: biochemical; conditions: 300 nM PaPBP3, 30 min preincubation, 37 °C; read-out: IC50 Determination with PaPBP3, S2dfluo Assay
T1 construct: P. aeruginosa PBP3 (amino acids 40 to 563); His-tag; made in house; host or cells: E. coli BL21 (DE3) Rosetta, plasmid pET41_PBP-3
T1 sequence (G3XD46 40-563): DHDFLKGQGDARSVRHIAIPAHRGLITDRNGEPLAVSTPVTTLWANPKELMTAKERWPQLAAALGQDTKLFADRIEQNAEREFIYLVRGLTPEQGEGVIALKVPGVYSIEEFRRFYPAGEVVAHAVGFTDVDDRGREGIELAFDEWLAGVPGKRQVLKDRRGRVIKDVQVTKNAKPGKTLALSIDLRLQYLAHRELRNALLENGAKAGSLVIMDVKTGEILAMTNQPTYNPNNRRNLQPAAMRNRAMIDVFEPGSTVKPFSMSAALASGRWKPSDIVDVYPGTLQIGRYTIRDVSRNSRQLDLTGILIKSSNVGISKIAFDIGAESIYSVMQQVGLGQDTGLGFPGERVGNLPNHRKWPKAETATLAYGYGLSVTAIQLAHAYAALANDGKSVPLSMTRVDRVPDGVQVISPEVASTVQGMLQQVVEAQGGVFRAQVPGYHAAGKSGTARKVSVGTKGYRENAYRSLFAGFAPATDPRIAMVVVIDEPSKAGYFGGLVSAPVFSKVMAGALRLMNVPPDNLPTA
Experimental: The assays were carried out in the presence of 5% DMSO and 0.01% Triton X100 to avoid the formation of colloidal structures and adsorption of protein and/or compounds to surfaces. The Z’-factor determined for the assay was 0.73 ± 0.28, indicating the suitability and robustness of the assay for high throughput screening (HTS) (Figure 1B,C).
The activity of soluble ^PaPBP3 (300 nM) was measured in the presence of 0.8 mM S2d, 1 mM D-alanine and 0.5 mM mBBr for 25 min by monitoring the increase in the fluorescence intensity of mBBr at Ex/Em: 394/490 nm using an Infinite M1000 microplate reader (Tecan, Männedorf, Switzerland). To test the effect of inhibitors, 100 µM or 0.8 to 100 µM of compounds diluted in 96% DMSO were incubated for 30 min and 450 rpm with 300 nM soluble PBP3. The incubation period was set to improve the binding of non-covalent inhibitors and 0.01% Triton X100 (Sigma-Aldrich, Taufkirchen, Germany) was added to prevent aggregation of compounds. The enzyme reaction was started by adding a substrate mix of 0.8 mM S2d and […]. The enzyme, compound and substrate mix were mixed 1:1, pipetted with a Liquidator 96 (Melter Toledo, Gießen, Germany) and the fluorescence intensity was directly monitored with an Infinite M1000 microplate reader (Tecan) at Ex/Em: 394/490 nm. The assay was performed in black, flat-bottom 96-well microplates (Greiner Bio-One, Kremsmünster, Austria) at 37 °C in Sorensen Phosphate Buffer (57 mM Na2HPO4 and 10 mM KH2PO4, pH 7.5 + 0.01% Triton X-100). The velocity of the PBP3 reaction was calculated in the presence of each concentration of compound and the velocity values were used to estimate IC50 by sigmoidal nonlinear regression, using Prism v.9 software (San Diego, CA, USA) and the velocity of the reaction at each concentration.

[10] = tested on: NRK-52E, epithelial kidney cell line; experiment: Cytotoxicity assay (PrestoBlue), NRK52E; conditions: CC50, 72 h
Experimental: (§4) We finally tested the cytotoxicity of the compounds against four eukaryotic cell lines (Table 2 and Table S5), NRK-52E, an epithelial kidney cell line of Rattus norvegicus; Hep G2, an human epithelial liver cell line; and two suspension cell lines: CCRF-CEM, a T lymphoblast; and H9, a cutaneous T lymphocyte cell line.
(§5) Cell lines stored at −120 °C were thawed to 37 °C and resuspended in 10 mL of medium pre-warmed to 37 °C. Cells were pelleted at 300× g for 10 min, and then resuspended in fresh medium, seeded in a T-75 culture flask, and placed in a CO2 incubator (37 °C with 5% CO2 tension). Once the cells reached approximately 70–80% confluency, they were then passaged regularly. The adherent cell lines NRK52E, HepG2 and Huh 7 were washed once with 10 mL DPBS and detached with Trypsin-EDTA for 5 to 7 min and resuspended in 15 mL of the appropriate medium. The suspension cell line CCRF-CEM were diluted and resuspended in fresh RPMI 1640 PAN medium. To calculate the cell density, the cell resuspensions were diluted 1:6 with DPBS. Equal volumes of cell suspension and Trypan Blue were mixed and gently loaded into a haemocytometer (INCYTO, 31056 Republic of Korea). In each experiment, cell concentrations were adjusted to reach a concentration of 2.5 × 10^3 cell/well for NRK52E, 5 × 10^3 cell/well for HepG2, 6.2 × 10^4 cell/well for CCRF-CEM and 3 × 10^3 for H9. The cells were incubated with decreasing concentration of compounds (1 µL in 96% DMSO) for 72 h at 37 °C with 5% CO2 tension. Cycloheximide, a cytotoxic compound that interferes with the translocation step in eukaryotic protein synthesis was used as a control for the experiments. The assay was carried out in flat-bottom, transparent 96-well plates. Cell viability was determined using the PrestoBlue reagent (Thermo Fisher Scientific, Waltham, MA, USA) according to the manufacture’s protocol. First, 10× PrestoBlue was added to each well to obtain a 1× solution, and incubated at 37 °C for 45 min. Then, fluorescence was measured at Ex/Em: 550/595 nm using a ClarioStar microplate reader (BMG Labtech). Cytotoxicity was determined as the percentage of the difference in absorbance of the untreated sample to the treated sample. CC50 was calculated using the values obtained in each concentration using the sigmoidal dose-response by Prism v.8. The media used in each cell line is detailed in Table S6.

[11] = tested on: Hep G2, epithelial liver cell line; experiment: Cytotoxicity assay (PrestoBlue), HepG2; conditions: CC50, 72 h
Experimental: as §4, §5

[12] = tested on: T-lymphoblast CCRF-CEM cell line; experiment: Cytotoxicity assay (PrestoBlue), CCRF-CEM; conditions: CC50, 72 h
Experimental: as §4, §5

[13] = tested on: H9, cutaneous T lymphocyte cell line; experiment: Cytotoxicity assay (PrestoBlue), H9; conditions: CC50, 72 h
Experimental: as §4, §5

[14] = biological target: T1, PBP3 of P. aeruginosa (PaPBP3); experiment: FP-Bocillin FL competition assay; assay type: binding; conditions: 30 min preincubation before Bocillin FL, 37 °C; read-out: IC50 Determination with PaPBP3, FP-Bocillin FL Assay
Experimental: Bocillin FL is a fluorescent penicillin V derivate used as a competitor for PBP inhibitors.
Fluorescence polarisation (FP) experiments were carried out as described before. To determine the binding of Bocillin FL to PBP, 200 nM of ^PaPBP3 was incubated for 30 min with 100 nM of Bocillin FL (Thermo Fisher Scientific, Waltham, MA, USA). The fluorescence polarisation signal of free Bocillin FL was monitored in a Pherastar microplate reader (BMG Labtech, Ortenberg, Germany) in the polarisation mode with Ex/Em: 485/520 nm excitation and emission filters. Millipolarisation (mP) units were calculated using the MARS data analysis software v30.40.R2 (BMG Labtech, Ortenberg, Germany). All the experiments were done in Sorensen buffer at 37 °C using flat-bottom, black 96-well plates. […] Bocillin FL was diluted in Sorensen buffer and added to the reaction and directly measured for 30 min at 37 °C. The FP was continuously measured in the presence and absence of compound and enzyme. […] The estimated IC50 values were established by sigmoidal nonlinear regression, using Prims v.8 software.

[15] = Staphylococcus aureus, 133, 18 h, PMBN 0 µg/mL, control compounds
[16] = Bacillus subtilis, 168, 18 h, PMBN 0 µg/mL, control compounds
[17] = PMBN 0 µg/mL, control compounds
[18] = PMBN 50 µg/mL, control compounds
[19] = PMBN 0 µg/mL, control compounds, read-out: MIC (µM) E. coli Newmann
[20] = 18 h, PMBN 0 µg/mL, control compounds

| Structure (SMILES) | MIC [1, 15] [µM] | MIC [2] [µM] | MIC (µM) against P. aeruginosa PAO1 [2] [µM] | MIC [3] [µM] | MIC (µM) against P. aeruginosa K28926 [3] [µM] | MIC [4, 16] [µM] | MIC ([5]; ATCC15308, PMBN 0 µg/mL) [µM] | MIC ([5]; ATCC15308, PMBN 50 µg/mL) [µM] | MIC [6, 17] [µM] | MIC [6, 18] [µM] | MIC [7, 19] [µM] | MIC [8, 20] [µM] | Cytotoxicity effect (µM) Epithelial kidney NRK52E [10] [µM] | Cytotoxicity effect (µM) Epithelial liver HepG2 [11] [µM] | Cytotoxicity CCRF-CEM [12] [µM] | Cytotoxicity effect (µM) T-lymphocyte H9 [13] [µM] | further results |
| --- | --- | --- | --- | --- | --- | --- | --- | --- | --- | --- | --- | --- | --- | --- | --- | --- | --- |
| C[C@H]1[C@H](NC(=O)/C(=N\OC(C)(C)C(=O)O)c2csc(N)n2)C(=O)N1S(=O)(=O)O [Aztreonam, aztreonam, reference compound] | > 1.2 | > 1.2 | 0.58 (≈ 0.253 µg/mL) | 0.575 (≈ 0.25 µg/mL) | 0.29 (≈ 0.126 µg/mL) | > 1.2 | > 1.2 | 0.58 (≈ 0.253 µg/mL) | 0.143 (≈ 0.0623 µg/mL) | 0.071 (≈ 0.0309 µg/mL) | 0.287 (≈ 0.125 µg/mL) | > 1.2 | – | – | – | – | – |
| O=C(C1=C(O)C(=O)N(Cc2c[nH]c3ccccc23)C1c1ccc(Cl)cc1)c1ccc(Br)cc1 (stereo not shown) [Compound 39] | – | – | – | – | – | – | – | – | – | – | – | – | > 100 | > 100 | >100 | > 100 | MIC ([1]; Staphylococcus aureus, 133, Table S3): 25 µM (≈ 13 µg/mL); IC50 [9]: 24 ± 7 µM; MIC ([4]; Bacillus subtilis, 168, Table S3): > 100 µM; MIC (µM) A. baumanii ATCC15308 ([5]; 10 µg/mL PMBN): > 100 µM; MIC ([6]; Klebsiella pneumoniae, Table S3): > 100 µM; MIC ([7]; Table S3, read-out: MIC (µM) E. coli Neumann): > 100 µM; MIC ([8]; Table S3): 25 µM (≈ 13 µg/mL); IC50 [14]: 11 ± 4 µM |
| C[C@@H]1C[C@@H]([C@H](O)CC2CC(=O)NC(=O)C2)C(=O)[C@@H](C)C1 [Cycloheximide, reference compound] | – | – | – | – | – | – | – | – | – | – | – | – | 0.20 ± 0.2 | 1.34 ± 0.7 | 0.66 ± 0.5 | 0.53 ± 0.3 | – |
| CN(C)c1cc(NC(=O)CNC(C)(C)C)c(O)c2c1C[C@H]1C[C@H]3[C@H](N(C)C)C(O)=C(C(N)=O)C(=O)[C@@]3(O)C(O)=C1C2=O [Tygecyclin, tigecycline, reference compound] | 0.2 (≈ 0.117 µg/mL) | > 4 | 0.4 (≈ 0.234 µg/mL) | 0.8 (≈ 0.469 µg/mL) | 0.2 (≈ 0.117 µg/mL) | 0.2 (≈ 0.117 µg/mL) | 0.9 (≈ 0.527 µg/mL) | 0.4 (≈ 0.234 µg/mL) | 0.9 (≈ 0.527 µg/mL) | 0.4 (≈ 0.234 µg/mL) | 0.4 (≈ 0.234 µg/mL) | 0.1 (≈ 0.0586 µg/mL) | – | – | – | – | – |
